Values of other authors as cited in patent US20250186347A1 (priority 2025, published 2025).

Tested on: E. faecalis ampicillin-resistant strains
Settings: reports

Q: For `CC1(C)S[C@@H]2[C@H](NC(=O)[C@H](N)c3ccccc3)C(=O)N2[C@H]1C(=O)O` [ampicillin], which MIC is on record?
A: Its MIC is 4 to 8 µg/mL.
